For data set [1], the system named is Human ESC-derived cardiac cells (Hes2). In words: TUNEL assay with cTnT co-localization of human ESC-derived cardiac cells. The class given is cell-based. The note with it: 50 μM, FIG. 21. As to the method:
(§1) Human ESC-derived cardiac cell culture, were derived from Day 20 EBs, consisting of greater than 50% cardiomyocytes obtained by directed differentiation of human ES (Hes2) cells as described by Yang et al. (Nature 453, 524-528 (2008)). EBs were dissociated using Collagenase I (Invitrogen) for 2 hrs and 0.05% Trypsin-EDTA (Invitrogen) for 5 min and plated at 40000 cells/cm^2 onto 0.2% gelatin-coated plates in Stempro 34 medium supplemented with VEGF (10 ng/ml) and DKK1 (150 ng/ml). Cells were cultured in the presence of 50 μM QHREDGS, 50 μM DGQESHR (Biomatik) or PBS until they formed a beating monolayer, around 10 days. Peptides were replenished during media changes every 3 days. 100 μM H2O2 (Sigma, dissolved in PBS) was added to culture media for 10 min, washed, and analyzed immediately for CFDA-Live/PI-Dead. Live cells were counted using the cell counter plug in for ImageJ. 0.5 μM or 2.5 μM taxol (Sigma, dissolved in DMSO) was added to culture media for 24 hrs, and the extent of apoptosis was analyzed immediately using the Apo-ONE Homogeneous Caspase Assay (Promega), or TUNEL assay (Roche) as described above. A PBS control was used for H2O2 and DMSO control was used for taxol.

Data set [2] shares this test system. In words: H2O2 exposure, CFDA-Live/PI-Dead of human ESC-derived cardiac cells. The note with it: 50 μM, 100 μM H2O2 10 min, FIG. 19. Type of data set: cell-based. As for the experimental part: as §1
The test system is the same in data set [3]. In words: Total cell number of monolayer human ESC-derived cardiac cells. The class given is cell-based. The note with it: 50 μM, 10 days, vs PBS control and DGQESHR. As to the method: as §1
Data set [4] relates to neonatal rat CMs (heart cells). In words: Preliminary 3D cell encapsulation studies in hydrogels. The note with it: encapsulated, 1 to 4 days of 3D culture. Type of data set: cell-based, rat (Sprague-Dawley). As for the experimental part:
The lyophilized form of the peptide-modified Az-chitosan was dissolved in sterile 0.9% saline at 12 mg/mL. CMs (2.5×10^6) were suspended in 15 μL of CM culture media with 30% serum for 15 minutes on ice. These cells were then suspended in 35 μL of the hydrogel and crosslinked in the transwell inserts of the 96 well plates. The cells were cultivated in the CM culture medium with 10% FBS for up to 4 days.

The test system of the next data set is Lewis rats. The note with it: rat, in vivo, sc.
Data set [5] deals with neonatal rat CMs (heart cells). In words: Apo-ONE caspase 3/7 assay after serum starvation and taxol on coated surfaces. The class given is cell-based, rat (Sprague-Dawley). The note with it: serum-starved, overnight taxol, vs control surfaces, FIG. 4. As to the method: Glass coverslips were coated with Az-chitosan, or Az-chitosan conjugated with QHREDGS, RGDS, or a scrambled peptide (DGQESHR). The cells were then seeded (100,000 cells in 50 μL of CM media; seeding density of 88 cells/mm^2) on each surface (N=3), including plain glass as a control, for 15 min. The cells were then supplemented with serum-free media. After 19 hours, 5 μL of taxol (paclitaxel, Sigma), dissolved at 100 μM in DMSO, was added and maintained for 17 hours and 45 min at which time caspase assay was performed. One set of glass surfaces was not exposed to taxol treatment as a negative control.
The Apo-ONE caspase assay (Promega) was performed according to manufacturer's protocol. The cells were permeabilized and lyzed to release the caspases, which are activated in cells undergoing apoptosis. The assay contains rhodamine 110, bis-(N-CBZ-L-aspartyl-L-glutamyl-L-valyl-L-aspartic acid amide; Z-DEVD-R110). Caspase 3 and 7 are known to cleave the peptide DEVD and the leaving group, rhodamine 110 becomes fluorescent when excited with fluorescent light. The amount of fluorescence is proportional to the level of caspase 3/7 activity in the sample. According to the manufacturer's protocol, the caspase substrate was dissolved in a buffer at 1:100. […] The fluorescence of the buffer was read in the fluorometer at an excitation of 485 nm and a cut off of 520 nm. […]

Two substances from patent US9096643B2, “Cell-protective peptides and uses thereof” (priority 2010, dated 2015) can be followed below.

No end group written: not given here.

Procedure for Lewis rats: Cardiac constructs were made by encapsulation of neonatal Lewis rat cardiomyocytes in Az-chitosan-QHREDGS or Az-chitosan-RGDS. A total of 2×10^6 cardiomyocytes were resuspended in 15 μL of ice cold cardiomyocytes medium with 30% FBS for at least 10 min. These cells were then encapsulated in 100 μL of the hydrogel in transwell plates and constructs (2 mm thick and 6 mm in diameter) were produced. A total of 8 samples were made for each type of hydrogel, and 4 from each group were implanted, while the other 4 were retained as in vitro controls. Samples were cultured at 37° C. for 5 d before they were implanted in vivo.
Cardiac constructs described above were inserted subcutaneously into the abdomen of Lewis rats. Four samples were implanted for each type of hydrogel. […] Quantification of total SMA and Factor VIII was performed using ImageScope v10 (Aperio Technologies) and mean intensities were averaged for six fields for each sample and normalized to total area. […] Apoptosis was assessed using a TUNEL assay (Roche Applied Science) following the manufacturer's standard protocol.

With QHREDGS (angiopoietin 1 peptide), in data set [1], the “reduction of basal apoptosis in cardiomyocytes (TUNEL/cTnT)” value is given as “greater than 10 fold”. Also, the “viability of cardiac cells (% Live-CFDA/Dead-PI)” value in data set [2] is recorded as “enhanced viability”. Further, the “increase in number of cardiac cells/well” value in data set [3] was “greater than 2 fold”.

Consider “Az-chitosan-QHREDGS: QHREDGS peptide covalently conjugated to Az-chitosan by EDC chemistry (also: covalently conjugated to Az-chitosan by EDC chemistry, site not given here)”, for which the “heart cell survival and elongation in 3D hydrogel” value in data set [4] was “heart cell elongation”. The “animal health / external signs of inflammation” value in the data set with Lewis rats is listed as “no external signs of inflammation”. Also, the caspase-3/7 activation result in data set [5] was “significantly lower levels of caspase-3/7 activation”.
